{"source": "patent US7862842B2", "about": "“Use of cationic preservative in food products” (priority 2001, dated 2011)", "type_in_all_cases": "cell-based", "key": {"[1]": {"system": "Bacillus cereus var mycoide ATCC 11778", "assay": "minimum inhibitory concentration of LAE", "details": "Gram + Bacteria"}, "[2]": {"system": "Proteus mirabilis CECT 170", "assay": "minimum inhibitory concentration of LAE", "details": "Gram − Bacteria"}, "[3]": {"system": "Klebsiella pneumoniae var pneumoniae CECT 178", "assay": "minimum inhibitory concentration of LAE", "details": "Gram − Bacteria"}, "[4]": {"system": "Saccharomyces cerevisiae ATCC 9763", "assay": "minimum inhibitory concentration of LAE", "details": "Yeast"}, "[5]": {"system": "Penicillium chrysogenum CECT 2802", "assay": "minimum inhibitory concentration of LAE", "details": "Fungi"}, "Mould & yeast [6]": {"system": "Mould & yeast", "assay": "microbiological evolution in semi-preserved codfish in oil", "details": "LAE 100 ppm, 4° C.", "procedure": "(§1) The determination of the microbiological population is carried out according to the ISO standards.\n(§2) The samples are treated by dilution in buffer peptone with the appropriate neutralising agent of the preservative. The culture media used for counting the microorganisms are: Soya triptone agar (32-35° C., 48 hours) for the determination of mesophilic bacteria; Sabouraud agar with chloramfenicol (25° C., 3-5 days) for fungi and yeast; Violet red bile glucose agar (32-35° C., 24 hours) for enterobacteria; Soya triptone agar (17° C., 5 days) for psychrotrophic bacteria.\n(§3) The sample LAE was added to the oil assayed at a concentration of 100 ppm and its microbiological evolution at 4° C. was compared against a control."}, "Aerobe Bacteria [7]": {"system": "Aerobe Bacteria", "assay": "microbiological evolution in semi-preserved codfish in oil", "details": "LAE 100 ppm, 4° C.", "procedure": "as §1, §2, §3"}, "[8]": {"system": "Rhodotorula rubra CECT 1158", "assay": "minimum inhibitory concentration of LAE", "details": "Yeast"}, "[9]": {"system": "Serratia marcenses CECT 274", "assay": "minimum inhibitory concentration of LAE", "details": "Gram − Bacteria"}, "Enterobacteria": {"system": "Enterobacteria", "assay": "microbiological evolution in veal stew", "details": "LAE 100 ppm, 10° C.", "procedure": "as §1, §2\n(§4) The sample LAE was added to at a concentration of 100 ppm and its microbiological evolution at 10° C. was compared against a control."}, "Mould & yeast [10]": {"system": "Mould & yeast", "assay": "microbiological evolution in veal stew", "details": "LAE 100 ppm, 10° C.", "procedure": "as §1, §2, §4"}, "Aerobe Bacteria [11]": {"system": "Aerobe Bacteria", "assay": "microbiological evolution in veal stew", "details": "LAE 100 ppm, 10° C.", "procedure": "as §1, §2, §4"}, "Mould & yeast [12]": {"system": "Mould & yeast", "assay": "microbiological evolution in a carbonated orange beverage", "details": "LAE 100 ppm, 17° C.", "procedure": "as §1, §2\n(§5) The sample LAE was added to at a concentration of 100 ppm and its microbiological evolution at 17° C. was compared against a control."}, "Aerobe Bacteria [13]": {"system": "Aerobe Bacteria", "assay": "microbiological evolution in a carbonated orange beverage", "details": "LAE 100 ppm, 17° C.", "procedure": "as §1, §2, §5"}, "[14]": {"system": "Escherichia coli ATCC 8739", "assay": "minimum inhibitory concentration of LAE", "details": "Gram − Bacteria"}, "[15]": {"system": "Bacillus subtilis ATCC 6633", "assay": "minimum inhibitory concentration of LAE", "details": "Gram + Bacteria"}, "[16]": {"system": "Chaetonium globosum ATCC 6205", "assay": "minimum inhibitory concentration of LAE", "details": "Fungi"}, "[17]": {"system": "Salmonella typhimurium ATCC 16028", "assay": "minimum inhibitory concentration of LAE", "details": "Gram − Bacteria"}, "Escherichia coli 0157H7": {"system": "Escherichia coli 0157H7", "assay": "minimum inhibitory concentration of LAE", "details": "Gram − Bacteria"}, "[18]": {"system": "Gliocadium virens ATCC 4645", "assay": "minimum inhibitory concentration of LAE", "details": "Fungi"}, "[19]": {"system": "Pseudomonas aeruginosa ATCC 9027", "assay": "minimum inhibitory concentration of LAE", "details": "Gram − Bacteria"}, "[20]": {"system": "Aspergillus niger ATCC14604", "assay": "minimum inhibitory concentration of LAE", "details": "Fungi"}, "Mould & yeast [21]": {"system": "Mould & yeast", "assay": "microbiological evolution in a blackberry juice", "details": "LAE 60 ppm, 34° C.", "procedure": "as §1, §2\n(§6) The sample LAE was added to at a concentration of 60 ppm and its microbiological evolution at 34° C. was compared against a control."}, "Aerobe Bacteria [22]": {"system": "Aerobe Bacteria", "assay": "microbiological evolution in a blackberry juice", "details": "LAE 60 ppm, 34° C.", "procedure": "as §1, §2, §6"}, "[23]": {"system": "Leuconostoc mesenteroides CETC 912", "assay": "minimum inhibitory concentration of LAE", "details": "Gram + Bacteria"}}, "data": [{"smiles": "CCCCCCCCCCCC(=O)N[C@@H](CCCN=C(N)N)C(=O)OCC.Cl", "note": "[LAE, ethyl ester of the lauramide of the arginine monohydrochloride]", "values": [{"measurement": "M.I.C.", "setting": "[1]", "result": 32, "unit": "ppm"}, {"measurement": "M.I.C.", "setting": "[2]", "result": 32, "unit": "ppm"}, {"measurement": "M.I.C.", "setting": "[3]", "result": 32, "unit": "ppm"}, {"measurement": "M.I.C.", "setting": "[4]", "result": 32, "unit": "ppm"}, {"measurement": "M.I.C.", "setting": "[5]", "result": 128, "unit": "ppm"}, {"measurement": "Mould & yeast count", "setting": "Mould & yeast [6]; 0 days", "result": "3.0 · 10^2 cfu/g"}, {"measurement": "Mould & yeast count", "setting": "Mould & yeast [6]; 14 days", "result": "5.4 · 10^3 cfu/g"}, {"measurement": "Mould & yeast count", "setting": "Mould & yeast [6]; 43 days", "result": "8.2 · 10^3 cfu/g"}, {"measurement": "Aerobe Bacteria count", "setting": "Aerobe Bacteria [7]; 0 days", "result": "7.6 · 10^3 cfu/g"}, {"measurement": "Aerobe Bacteria count", "setting": "Aerobe Bacteria [7]; 14 days", "result": "1.0 · 10^4 cfu/g"}, {"measurement": "Aerobe Bacteria count", "setting": "Aerobe Bacteria [7]; 43 days", "result": "8.5 · 10^4 cfu/g"}, {"measurement": "M.I.C.", "setting": "[8]", "result": 16, "unit": "ppm"}, {"measurement": "M.I.C.", "setting": "[9]", "result": 32, "unit": "ppm"}, {"measurement": "Enterobacteria count", "setting": "Enterobacteria; 0 days", "result": "<10", "unit": "cfu/g"}, {"measurement": "Enterobacteria count", "setting": "Enterobacteria; 14 days", "result": "<10", "unit": "cfu/g"}, {"measurement": "Mould & yeast count", "setting": "Mould & yeast [10]; 0 days", "result": "<10", "unit": "cfu/g"}, {"measurement": "Mould & yeast count", "setting": "Mould & yeast [10]; 14 days", "result": "<10", "unit": "cfu/g"}, {"measurement": "Aerobe Bacteria count", "setting": "Aerobe Bacteria [11]; 0 days", "result": "<10", "unit": "cfu/g"}, {"measurement": "Aerobe Bacteria count", "setting": "Aerobe Bacteria [11]; 14 days", "result": "<10", "unit": "cfu/g"}, {"measurement": "Mould & yeast count", "setting": "Mould & yeast [12]; 0 days", "result": "<10", "unit": "cfu/g"}, {"measurement": "Mould & yeast count", "setting": "Mould & yeast [12]; 14 days", "result": "<10", "unit": "cfu/g"}, {"measurement": "Aerobe Bacteria count", "setting": "Aerobe Bacteria [13]; 0 days", "result": "4.3 · 10^2 cfu/g"}, {"measurement": "Aerobe Bacteria count", "setting": "Aerobe Bacteria [13]; 14 days", "result": "1.0 · 10^2 cfu/g"}, {"measurement": "M.I.C.", "setting": "[14]", "result": 32, "unit": "ppm"}, {"measurement": "M.I.C.", "setting": "[15]", "result": 16, "unit": "ppm"}, {"measurement": "M.I.C.", "setting": "[16]", "result": 16, "unit": "ppm"}, {"measurement": "M.I.C.", "setting": "[17]", "result": 32, "unit": "ppm"}, {"measurement": "M.I.C.", "setting": "Escherichia coli 0157H7", "result": 20, "unit": "ppm"}, {"measurement": "M.I.C.", "setting": "[18]", "result": 32, "unit": "ppm"}, {"measurement": "M.I.C.", "setting": "[19]", "result": 64, "unit": "ppm"}, {"measurement": "M.I.C.", "setting": "[20]", "result": 32, "unit": "ppm"}, {"measurement": "Mould & yeast count", "setting": "Mould & yeast [21]; 0 days", "result": "<10", "unit": "cfu/g"}, {"measurement": "Mould & yeast count", "setting": "Mould & yeast [21]; 14 days", "result": "<10", "unit": "cfu/g"}, {"measurement": "Aerobe Bacteria count", "setting": "Aerobe Bacteria [22]; 0 days", "result": "4.0 · 10^2 cfu/g"}, {"measurement": "Aerobe Bacteria count", "setting": "Aerobe Bacteria [22]; 14 days", "result": "2.4 · 10^3 cfu/g"}, {"measurement": "M.I.C.", "setting": "[23]", "result": 32, "unit": "ppm"}]}]}
